The source of these data is patent publication US10231453B2, “5-substituted imidazole derivatives” (BAYER CROPSCIENCE AKTIENGESELLSCHAFT, priority 2015, dated 2019).

What is called chromatographic logP is lipophilicity estimated from chromatographic retention. Low values mean a more hydrophilic compound, high ones a more lipophilic compound.

Series [1] concerns Alternaria brassicae. Kind of series: In vivo preventive test on Alternaria brassicae (leaf spot on radish), Examples A and R1. To be noted: Alternaria brassicae, 144 h, 500 ppm of active ingredient, preventive spray, evaluated 6 days after inoculation, read-out: efficacy.
The test system of series [2] is Fusarium nivale (var. majus). Kind of series: In vivo preventive Fusarium nivale (var. majus) test (wheat), Example O. To be noted: Microdochium nivale, 120 h, 500 ppm of active ingredient, preventive spray, evaluated 5 days after inoculation, read-out: efficacy. From the text:
After the spray coating has been dried, the plants are slightly injured by using a sandblast and afterwards they are sprayed with a conidia suspension of Fusarium nivale (var. majus).

Series [3] relates to Septoria tritici. Kind of series: In vivo preventive test on Septoria tritici (leaf spot on wheat), Examples E, Q3 and R5. The following applies: Zymoseptoria tritici, 576 h, 500 ppm of active ingredient; wheat, preventive spray, evaluated 24 days after inoculation; read-out: efficacy.
For series [4], the system named is Pyrenophora teres. Kind of series: In vivo preventive test on Pyrenophora teres (net blotch on barley), Examples D, Q2 and R4. The following applies: Pyrenophora teres, 336 h, 500 ppm of active ingredient, preventive spray, evaluated 14 days after inoculation, read-out: efficacy.
Series [5] relates to Puccinia recondita. Kind of series: In vivo preventive test on Puccinia recondita (brown rust on wheat), Examples C and R3. To be noted: Puccinia recondita, 264 h; 500 ppm of active ingredient; wheat, preventive spray, evaluated 11 days after inoculation; read-out: efficacy.
For series [6], the system named is Sphaerotheca fuliginea. Kind of series: In vivo preventive test on Sphaerotheca fuliginea (powdery mildew on cucurbits), Examples F and R6. To be noted: Podosphaera fuliginea, 360 h; 500 ppm of active ingredient; gherkin, preventive spray, evaluated 15 days after inoculation; read-out: efficacy.
Series [7] in a line: Measurement of LogP values by HPLC on reversed phase columns (EEC directive 79/831 Annex V.A8). It is filed as physicochemical. The following applies: method [a]: LC-UV, acidic range, 0.1% formic acid in water and acetonitrile as eluent; Table 1. How it is done:
Measurement of Log P values was performed as outlined above.

In series [8] the test system is Blumeria graminis fsp. hordei. The series can be described thus: In vivo preventive Blumeria test (barley), Example K. The following applies: 168 h, 500 ppm of active ingredient, preventive spray, evaluated 7 days after inoculation, read-out: efficacy. From the text: After the spray coating has been dried, the plants are dusted with spores of Blumeria graminis fsp. hordei.

Series [9] deals with Uromyces appendiculatus. The series can be described thus: In vivo preventive test on Uromyces appendiculatus (bean rust), Examples G and R7. The following applies: 264 h, 500 ppm of active ingredient, bean, preventive spray, evaluated 11 days after inoculation, read-out: efficacy.
Series [10] concerns Leptosphaeria nodorum. Kind of series: In vivo preventive Leptosphaeria nodorum test (wheat), Example N. The following applies: Parastagonospora nodorum, 192 h, 500 ppm of active ingredient, preventive spray, evaluated 8 days after inoculation, read-out: efficacy. From the text: After the spray coating has been dried, the plants are sprayed with a spore suspension of Leptosphaeria nodorum.

Series [11] has as its system Pyricularia oryzae. The series can be described thus: whole plant or invertebrate. Format: in vivo. The following applies: 192 h, read-out: efficacy.
Series [12] has as its system Botrytis cinerea. Kind of series: In vivo preventive test on Botrytis cinerea (grey mould) on gherkin, Examples B, Q1 and R2. The following applies: Botrytis cinerea, 500 ppm of active ingredient, preventive spray, evaluated 4 to 5 days after inoculation, read-out: efficacy.
Series [13] has as its system Alternaria solani. Kind of series: In vivo preventive Alternaria test (tomatoes), Example H. The following applies: 72 h, 100 ppm of active ingredient, preventive spray, evaluated 3 days after inoculation, read-out: efficacy.
Series [14] relates to Phakopsora pachyrhizi. Kind of series: In vivo preventive Phakopsora test (soybeans), Example I. The following applies: 168 h, 100 ppm of active ingredient, preventive spray, evaluated 7 days after inoculation, read-out: efficacy.
For series [15], the system named is Venturia inaequalis. Kind of series: In vivo preventive Venturia test (apples), Example J. To be noted: 240 h, read-out: efficacy.
Experimental: After the spray coating has dried on, the plants are inoculated with an aqueous conidia suspension of the causal agent of apple scab (Venturia inaequalis) and then remain for 1 day in an incubation cabinet at approximately 20° C. and a relative atmospheric humidity of 100%.
The plants are then placed in a greenhouse at approximately 21° C. and a relative atmospheric humidity of approximately 90%.
The test is evaluated 10 days after the inoculation.
For series [16], the system named is Fusarium graminearum. The series can be described thus: whole plant or invertebrate. It is filed as in vivo. To be noted: in Hordeum vulgare, 120 h, read-out: efficacy.

Consider `COC(=O)c1cncn1CC(O)(Cc1ccccc1Cl)C1(Cl)CC1` (centres unmarked) [Example I-01], for which the pest or weed control at 500 ppm in [1] was 80 to 89%; in series [2] it was 70 to 79%; in series [3], 90 to 100%; in series [4] it was 90 to 100%; in series [5], 90 to 100%; in series [6], 90 to 100%. Further, the pest or weed control at 500 ppm in [8] and in series [9] was 90 to 100% throughout. For the same compound, the chromatographic logP in series [7] came out at 2.82.

On to `OC(Cc1c(Cl)ccnc1Cl)(Cn1cncc1Cl)C1(Cl)CC1` (centres unmarked) [Example I-11], for which the pest or weed control at 500 ppm in series [2] was 80 to 89%; in series [10], 80 to 89%; in [3] it was 90 to 100%; in [4], 80 to 89%; in series [5], 80 to 89%; in series [6] it was 90 to 100%. Moreover, the pest or weed control at 500 ppm in series [11] was in the range of 80 to 89%; in [9], 90 to 100%. The compound further displayed a chromatographic logP in [7] of 2.02.

For the compound `OC(Cc1ccccc1F)(Cn1cncc1Br)C1(Cl)CC1` (centres unmarked) [Example I-33], the pest or weed control at 500 ppm was in the range of 90 to 100% in series [1]; 90 to 100% in series [12]; 90 to 100% in series [10]; 90 to 100% in series [3]; 80 to 89% in [4]; 80 to 89% in series [5]. In addition, the pest or weed control at 500 ppm in [6], in series [8] and in series [9] was 90 to 100% in each case. For the same compound, the pest or weed control at 100 ppm in [13], in [14] and in series [15] was 90 to 100% in each case. For the same compound, in series [7], the chromatographic logP stood at 2.1.

As for `N#Cc1cncn1CC(O)(Cc1ccc(Br)cc1Cl)C1(Cl)CC1` (centres unmarked) [Example I-41], the pest or weed control at 500 ppm in [16] lay within 90 to 100%; in [2], 80 to 89%; in [10], 70 to 79%; in series [3], 90 to 100%; in series [5] it was 90 to 100%; in [6], 90 to 100%. Further, the pest or weed control at 500 ppm in series [8] and in series [9] was 90 to 100% each time. The compound further came in with a chromatographic logP in series [7] of 3.52.

Turning to `OC(Cc1ccc(Br)cc1F)(Cn1cncc1Cl)C1(Cl)CC1` (centres unmarked) [Example I-44], the pest or weed control at 500 ppm in [16] fell in the range of 70 to 79%; in series [12], 90 to 100%; in [10], 80 to 89%; in series [3], 90 to 100%; in series [4] it was 90 to 100%; in series [5] it was 80 to 89%. Moreover, the pest or weed control at 500 ppm in [6] lay in the range of 90 to 100%; in [8] it was 90 to 100%; in [11] it was 70 to 79%; in series [9], 90 to 100%. The pest or weed control at 100 ppm in series [13], in series [14] and in [15] was 90 to 100% each time. Also, the chromatographic logP in [7] was 2.64.

As for `N#Cc1cncn1CC(O)(Cc1ccnc(Cl)c1Cl)C1(Cl)CC1` (centres unmarked) [Example I-50], the pest or weed control at 500 ppm is 90 to 100% in series [2]; 90 to 100% in [3]; 80 to 89% in series [4]; 80 to 89% in [5]; 90 to 100% in [6]; 90 to 100% in series [8]. Besides, the pest or weed control at 500 ppm in series [11] lay in the range of 70 to 79%; in [9], 90 to 100%. Moreover, the results for the pest or weed control at 100 ppm in series [13], in series [14] and in series [15] were 70 to 79%, 80 to 89% and 80 to 89%, respectively. Also, the chromatographic logP in series [7] came out at 2.47.

As to `N#Cc1cncn1CC(O)(Cc1ccccc1C(F)(F)F)C1(Cl)CC1` (centres unmarked) [Example I-88], the pest or weed control at 500 ppm is 90 to 100% in [16]; 80 to 89% in series [2]; 90 to 100% in series [3]; 90 to 100% in [4]; 90 to 100% in [5]; 90 to 100% in series [6]. For the same compound, the pest or weed control at 500 ppm in series [8] and in series [9] was 90 to 100% throughout. In [7], this compound showed a chromatographic logP of 3.15.

Take `N#Cc1cncn1CC(O)(Cc1ccccc1Cl)C1(F)CC1` (centres unmarked) [Example I-98]: the pest or weed control at 500 ppm in series [16] is 90 to 100%; in series [12], 70 to 79%; in series [3], 90 to 100%; in [4], 90 to 100%; in series [5] it was 90 to 100%; in series [6], 90 to 100%. Also, the pest or weed control at 500 ppm in [8], in [11] and in [9] was 90 to 100% in each case. Further, the pest or weed control at 100 ppm in series [13], in series [14] and in series [15] was 90 to 100% each time. In [7], this compound had a chromatographic logP of 2.53.

For the compound `N#Cc1cncn1CC(O)(Cc1ccc(F)c(F)c1F)C1(Cl)CC1` (centres unmarked) [Example I-103], the pest or weed control at 500 ppm in series [16] lay in the range of 90 to 100%; in [3], 90 to 100%; in [4], 80 to 89%; in series [5], 90 to 100%; in series [6] it was 90 to 100%; in [8] it was 90 to 100%. Moreover, the pest or weed control at 500 ppm in [9] lay within 90 to 100%. The pest or weed control at 100 ppm in series [13] lay in the range of 80 to 89%; in [14], 90 to 100%; in [15], 80 to 89%. The chromatographic logP in series [7] worked out at 2.92.

`N#Cc1cncn1CC(O)(Cc1ccc(F)c(F)c1)C1(Cl)CC1` (centres unmarked) [Example I-109]: the pest or weed control at 500 ppm was in the range of 90 to 100% in series [16]; 80 to 89% in [2]; 90 to 100% in series [3]; 90 to 100% in series [4]; 90 to 100% in [5]; 90 to 100% in series [6]. In addition, the pest or weed control at 500 ppm in series [8] and in series [9] was 90 to 100% throughout. In series [7], this compound came in with a chromatographic logP of 2.78.

Consider `OC(Cc1ccc(F)cc1F)(Cn1cncc1Cl)C1(Cl)CC1` (centres unmarked) [Example I-126], for which the pest or weed control at 500 ppm in series [16], in series [12], in [3], in [4], in series [5] and in series [6] was 90 to 100% each time. Also, the pest or weed control at 500 ppm in series [8], in [11] and in [9] was 90 to 100% throughout. The pest or weed control at 100 ppm in [13] and in [14] was 90 to 100% each time.

Turning to `CC(C)(C)C(O)(Cc1ccccc1F)Cn1cncc1C#N` (centres unmarked) [Example I-138], the pest or weed control at 500 ppm in series [16] lay in the range of 90 to 100%; in series [12] it was 80 to 89%; in [3] it was 90 to 100%; in series [5] it was 90 to 100%; in series [6], 90 to 100%; in series [8], 90 to 100%. The pest or weed control at 500 ppm fell in the range of 80 to 89% in series [11] and 90 to 100% in series [9]. Moreover, the pest or weed control at 100 ppm in series [14] is 90 to 100%; in series [15] it was 70 to 79%. The same compound displayed a chromatographic logP in series [7] of 2.73.

With `OC(Cc1ccncc1F)(Cn1cncc1Cl)C1(Cl)CC1` (centres unmarked) [Example I-164], the pest or weed control at 500 ppm in series [2] lay within 80 to 89%; in series [12] it was 90 to 100%; in [3], 90 to 100%; in series [4] it was 80 to 89%; in series [5], 80 to 89%; in series [6], 90 to 100%. In addition, the pest or weed control at 500 ppm in series [8] lay within 90 to 100%; in series [11], 70 to 79%; in [9], 90 to 100%. Further, the chromatographic logP in series [7] turned out to be 1.46.
